Assay results as given in publication PMC9260974 (BMC Pharmacology & Toxicology, 2022).

Key:
[1] = clinical; settings: human, in vivo
Experimental: (§1) All eligible subjects were assigned according to the random table generated by SAS 9.4 and took the test (T) and reference(R) drugs respectively with 240 ml water after an overnight fast of at least 10 h (fasting study) or after the high-fat breakfast within half an hour before dosing (fed study). […] Subjects were forbidden to drink water within 1 h before and after taking the drug, and the lunch and dinner were provided at 4 h and 8 h respectively post-drug administration. No other food and beverage intake was permitted except the provided diets. […] 4 ml venous blood samples were collected before drug administration and at 1,2,3,4,5,6,7,8,9,10,11,12,13,24,36,48,72,96,144,168 h after administration. The samples were centrifuged at 1700gear per minute for 10 min at 4℃ to separate the plasma, which was divided into two aliquots (drug monitoring at least 800ul and backup) and stored at - 80℃until analysis.
(§2) The lower limit of quantification (LLOQ) was 0.500 ng/mL and the assay dynamic range was 0.500-100 ng/mL.
(§3) Under multiple reaction monitoring, LC–MS/MS system adopts positive ionization mode.
(§4) Data collection and analysis was performed with Analyst 1.6.3 software (Sciex, Canada) and Watson LIMS (Thermo, USA). Calibration curves were constructed using linear regression equation obtained by the weighted (W = 1/X2) least square method fitting for both analytes. Quantitation of quality control and clinical samples were also performed by the Analyst software using the same mathematical algorithm as that used in the calibration of standard curves.
(§5) For the purpose of bioequivalence analysis, the maximum observed concentration (Cmax), the area under the plasma concentration–time curve from time 0 to the last measured time point (AUC0-t), and the area under the plasma concentration–time curve from time 0 to infinity (AUC0-∞) were considered as primary PK parameters. The secondary PK parameters were the observed time to Cmax (Tmax) and the apparent terminal half-life (T1/2). Cmax and Tmax were the factually measured data and AUC0-t was calculated using the linear and logarithmic trapezoidal methods. AUC0-∞ was calculated according to the following formula: AUC0-∞ = AUC0-t + Clast/λz (Clast is the last measurable concentration and is the first order rate constant of terminal elimination determined from a linear regression line after logarithmic transformation at the end of concentration time curve. λz is the slope calculated by linear regression after logarithmic conversion at the end of the concentration–time curve). T1/2 was calculated to be ln2/λ.
(§6) Statistical analysis was performed by SAS 9.4. Demographic characteristics, safety parameters and pharmacokinetic data were summarized using descriptive statistics, the results were presented as the mean ± SD and the differences between groups were determined by two one-sided tests. […] AUC and Cmax were logarithmically transformed and analyzed by linear mixed effect model. Sequence, period and formulation were fixed effects, and subject within sequence was included as a random effect. Analysis of variance (ANOVA) of cross-over design was performed on the log-transformed variables. […] Bioequivalence was assessed separately in both the fasting and fed groups.

[2] = in vivo; cited from earlier work
[3] = Single-dose two-period crossover bioequivalence study, fasting: plasma pharmacokinetics of lisinopril and amlodipine (LC-MS/MS, NCA); settings: for concentration at 0 h / concentration at 1 h / concentration at 2 h / concentration at 3 h / concentration at 4 h / concentration at 5 h / concentration at 6 h / concentration at 7 h / concentration at 8 h / concentration at 9 h / concentration at 10 h / concentration at 11 h / concentration at 12 h / concentration at 13 h / concentration at 24 h / concentration at 36 h / concentration at 48 h / concentration at 72 h / concentration at 96 h / concentration at 144 h / concentration at 168 h: human, plasma, po, Plasma concentration of amlodipine, reference (R) tablets; for concentration at 0 h: nominal time 0 h; for concentration at 1 h: nominal time 1 h; for concentration at 2 h: nominal time 2 h; for concentration at 3 h: nominal time 3 h; for concentration at 4 h: nominal time 4 h; for concentration at 5 h: nominal time 5 h; for concentration at 6 h: nominal time 6 h; for concentration at 7 h: nominal time 7 h; for concentration at 8 h: nominal time 8 h; for concentration at 9 h: nominal time 9 h; for concentration at 10 h: nominal time 10 h; for concentration at 11 h: nominal time 11 h; for concentration at 12 h: nominal time 12 h; for concentration at 13 h: nominal time 13 h; for concentration at 24 h: nominal time 24 h; for concentration at 36 h: nominal time 36 h; for concentration at 48 h: nominal time 48 h; for concentration at 72 h: nominal time 72 h; for concentration at 96 h: nominal time 96 h; for concentration at 144 h: nominal time 144 h; for concentration at 168 h: nominal time 168 h
Experimental: as §1, §2, §3, §4, §5, §6

[4] = amlodipine, intra-subject coefficient of variation

Question: For `CCOC(=O)C1=C(COCCN)NC(C)=C(C(=O)OC)C1c1ccccc1Cl` (centres unmarked) [amlodipine], which Tmax [1] is on record?
Answer: ~6 h

Question: What about the Absorption [2] of the same molecule?
Answer: almost completely absorbed

Question: What about the “Intra-CV (%) of AUC0-t” value [3, 4] of the same molecule?
Answer: 9.9%

Question: And the “Intra-CV (%) of AUC0-∞” value [3, 4]?
Answer: 10.5%

Question: And the “Intra-CV (%) of Cmax” value [3, 4]?
Answer: 9.7%

Question: What about the concentration at 0 h ([3]; Max, maximum over subjects) of the same molecule?
Answer: 0 ng/mL

Question: And the concentration at 1 h ([3]; Max, maximum over subjects)?
Answer: 2.24 ng/mL

Question: And the concentration at 2 h ([3]; Max, maximum over subjects)?
Answer: 2.57 ng/mL

Question: And the concentration at 3 h ([3]; Max, maximum over subjects)?
Answer: 3.08 ng/mL

Question: And the concentration at 4 h ([3]; Max, maximum over subjects)?
Answer: 2.45 ng/mL

Question: What about the concentration at 5 h ([3]; Max, maximum over subjects) of the same molecule?
Answer: 2.98 ng/mL

Question: What about the concentration at 6 h ([3]; Max, maximum over subjects) of the same molecule?
Answer: 4.18 ng/mL

Question: And the concentration at 7 h ([3]; Max, maximum over subjects)?
Answer: 2.76 ng/mL

Question: And the concentration at 8 h ([3]; Max, maximum over subjects)?
Answer: 3.48 ng/mL

Question: What about the concentration at 9 h ([3]; Max, maximum over subjects) of the same molecule?
Answer: 3.04 ng/mL

Question: And the concentration at 10 h ([3]; Max, maximum over subjects)?
Answer: 2.86 ng/mL

Question: And the concentration at 11 h ([3]; Max, maximum over subjects)?
Answer: 2.92 ng/mL

Question: And the concentration at 12 h ([3]; Max, maximum over subjects)?
Answer: 2.98 ng/mL

Question: And the concentration at 13 h ([3]; Max, maximum over subjects)?
Answer: 2.75 ng/mL

Question: And the concentration at 24 h ([3]; Max, maximum over subjects)?
Answer: 2.45 ng/mL

Question: What about the concentration at 36 h ([3]; Max, maximum over subjects) of the same molecule?
Answer: 1.96 ng/mL

Question: What about the concentration at 48 h ([3]; Max, maximum over subjects) of the same molecule?
Answer: 1.69 ng/mL

Question: And the concentration at 72 h ([3]; Max, maximum over subjects)?
Answer: 1.21 ng/mL

Question: What about the concentration at 96 h ([3]; Max, maximum over subjects) of the same molecule?
Answer: 1.11 ng/mL

Question: What about the concentration at 144 h ([3]; Max, maximum over subjects) of the same molecule?
Answer: 0.574 ng/mL

Question: What about the concentration at 168 h ([3]; Max, maximum over subjects) of the same molecule?
Answer: 0.455 ng/mL

Question: What about the concentration at 0 h ([3]; Mean, mean of subjects) of the same molecule?
Answer: 0 ng/mL

Question: And the concentration at 1 h ([3]; Mean, mean of subjects)?
Answer: 0.686 ng/mL

Question: What about the concentration at 2 h ([3]; Mean, mean of subjects) of the same molecule?
Answer: 1.24 ng/mL

Question: What about the concentration at 3 h ([3]; Mean, mean of subjects) of the same molecule?
Answer: 1.51 ng/mL

Question: What about the concentration at 4 h ([3]; Mean, mean of subjects) of the same molecule?
Answer: 1.6 ng/mL

Question: What about the concentration at 5 h ([3]; Mean, mean of subjects) of the same molecule?
Answer: 2.03 ng/mL

Question: And the concentration at 6 h ([3]; Mean, mean of subjects)?
Answer: 2.16 ng/mL

Question: And the concentration at 7 h ([3]; Mean, mean of subjects)?
Answer: 2.04 ng/mL

Question: What about the concentration at 8 h ([3]; Mean, mean of subjects) of the same molecule?
Answer: 2.08 ng/mL

Question: What about the concentration at 9 h ([3]; Mean, mean of subjects) of the same molecule?
Answer: 1.96 ng/mL

Question: What about the concentration at 10 h ([3]; Mean, mean of subjects) of the same molecule?
Answer: 1.85 ng/mL

Question: What about the concentration at 11 h ([3]; Mean, mean of subjects) of the same molecule?
Answer: 1.77 ng/mL

Question: What about the concentration at 12 h ([3]; Mean, mean of subjects) of the same molecule?
Answer: 1.74 ng/mL

Question: What about the concentration at 13 h ([3]; Mean, mean of subjects) of the same molecule?
Answer: 1.65 ng/mL

Question: What about the concentration at 24 h ([3]; Mean, mean of subjects) of the same molecule?
Answer: 1.41 ng/mL

Question: What about the concentration at 36 h ([3]; Mean, mean of subjects) of the same molecule?
Answer: 1.13 ng/mL

Question: And the concentration at 48 h ([3]; Mean, mean of subjects)?
Answer: 0.928 ng/mL

Question: What about the concentration at 72 h ([3]; Mean, mean of subjects) of the same molecule?
Answer: 0.64 ng/mL

Question: And the concentration at 96 h ([3]; Mean, mean of subjects)?
Answer: 0.446 ng/mL

Question: What about the concentration at 144 h ([3]; Mean, mean of subjects) of the same molecule?
Answer: 0.2 ng/mL

Question: What about the concentration at 168 h ([3]; Mean, mean of subjects) of the same molecule?
Answer: 0.137 ng/mL

Question: And the concentration at 0 h ([3]; Min, minimum over subjects)?
Answer: 0 ng/mL

Question: And the concentration at 1 h ([3]; Min, minimum over subjects)?
Answer: 0.26 ng/mL

Question: What about the concentration at 2 h ([3]; Min, minimum over subjects) of the same molecule?
Answer: 0.452 ng/mL

Question: And the concentration at 3 h ([3]; Min, minimum over subjects)?
Answer: 0.598 ng/mL

Question: And the concentration at 4 h ([3]; Min, minimum over subjects)?
Answer: 0.834 ng/mL

Question: And the concentration at 5 h ([3]; Min, minimum over subjects)?
Answer: 1.26 ng/mL

Question: And the concentration at 6 h ([3]; Min, minimum over subjects)?
Answer: 1.14 ng/mL

Question: And the concentration at 7 h ([3]; Min, minimum over subjects)?
Answer: 1.03 ng/mL

Question: And the concentration at 8 h ([3]; Min, minimum over subjects)?
Answer: 0.988 ng/mL

Question: What about the concentration at 9 h ([3]; Min, minimum over subjects) of the same molecule?
Answer: 0.918 ng/mL

Question: And the concentration at 10 h ([3]; Min, minimum over subjects)?
Answer: 0.806 ng/mL

Question: What about the concentration at 11 h ([3]; Min, minimum over subjects) of the same molecule?
Answer: 0.82 ng/mL

Question: And the concentration at 12 h ([3]; Min, minimum over subjects)?
Answer: 0.829 ng/mL

Question: And the concentration at 13 h ([3]; Min, minimum over subjects)?
Answer: 0.812 ng/mL

Question: And the concentration at 24 h ([3]; Min, minimum over subjects)?
Answer: 0.603 ng/mL

Question: What about the concentration at 36 h ([3]; Min, minimum over subjects) of the same molecule?
Answer: 0.482 ng/mL

Question: And the concentration at 48 h ([3]; Min, minimum over subjects)?
Answer: 0.391 ng/mL

Question: And the concentration at 72 h ([3]; Min, minimum over subjects)?
Answer: 0.226 ng/mL

Question: What about the concentration at 96 h ([3]; Min, minimum over subjects) of the same molecule?
Answer: 0.123 ng/mL

Question: And the concentration at 144 h ([3]; Min, minimum over subjects)?
Answer: 0 ng/mL

Question: And the concentration at 168 h ([3]; Min, minimum over subjects)?
Answer: 0 ng/mL
